Columns and labels:
human MT1 receptor = human MT1 receptor (Homo sapiens, UniProt P48039); test: Activation of human MT1 receptor in receptor-expressing HEK293 cells (intracellular Ca2+, FLIPR); format: cell-based; settings: for Emax: HEK293, maximum reaction by ramelteon taken as 100%, solvent only 0%, read-out: MT1 Emax (%); for EC50: HEK293 cells stably expressing human MT1 and Gq/i chimeric G-protein, intracellular Ca2+ by FLIPR
Description: (§1) (1) Isolation of Human MT1 and MT2 Receptor and Construction of Expression Vector
(§2) A human MT1 receptor gene (GenBank Accession No.: NM_005958.3) and a human MT2 receptor gene (GenBank Accession No.: NM_005959.3) were each introduced into an expression vector pCDNA3.1/Zeo (Invitrogen, Inc.).
(§3) (2) Construction of Cells Stably Expressing Human MT1 and Human MT2 Receptor
(§4) The introduction was carried out according to the attached instructions, using a Lipofectoamine (registered trademark) 2000 Reagent (Invitrogen, Inc.). Zeocin and hygromycin were used as a resistant drug, and the cell was incubated for 15 days at 0.02 mg/mL and 0.05 mg/mL, respectively, thereby acquiring drug-resistant clones.
(§5) (3) Measurement of Intracellular Ca^2+ Concentration by FLIPR (Registered Trademark)
(§6) The respective stably expressing cells were dispensed into 96-well poly-D-lysine-coated plates (Falcon Co.) to 40,000 cells/well the day before the experiment, and incubated overnight in a DMEM (Invitrogen, Inc.) medium including 10% FBS at 37° C. and 5% CO2. The medium was replaced with a loading buffer (washing solution (Hank's balanced salt solution (HBSS), 20 mM HEPES-NaOH, 2.5 mM probenecid) including Fluo-4AM (Dojindo Co.) at 4 μM), and incubated for 1 hour at 37° C. and 5% CO2. Thereafter, the cells were washed with a plate washer (ELx405, BIO-TEK Instrument, Inc.) set with the washing solution, and set in an intracellular Ca^2+ concentration measuring systems (FLIPR (registered trademark), Molecular Device Co.). The test compound was dissolved in the washing solution in advance, diluted to a final concentration of −12 to −5 log M, set in a FLIPR (registered trademark) device together with the cells, and added to the cells in the device. At this time, a change in the intracellular Ca^2+ concentrations was measured.
(§7) Ex represents Example No. of the test compound.

human MT2 receptor = biological target: T1, human MT2 receptor (Homo sapiens, UniProt P49286); test: Activation of human MT2 receptor in receptor-expressing HEK293 cells (intracellular Ca2+, FLIPR); format: cell-based; settings: for Emax: HEK293, maximum reaction by ramelteon taken as 100%, solvent only 0%; for EC50: HEK293 cells stably expressing human MT2 and Gq/i chimeric G-protein, intracellular Ca2+ by FLIPR
T1 sequence (P49286 1-362): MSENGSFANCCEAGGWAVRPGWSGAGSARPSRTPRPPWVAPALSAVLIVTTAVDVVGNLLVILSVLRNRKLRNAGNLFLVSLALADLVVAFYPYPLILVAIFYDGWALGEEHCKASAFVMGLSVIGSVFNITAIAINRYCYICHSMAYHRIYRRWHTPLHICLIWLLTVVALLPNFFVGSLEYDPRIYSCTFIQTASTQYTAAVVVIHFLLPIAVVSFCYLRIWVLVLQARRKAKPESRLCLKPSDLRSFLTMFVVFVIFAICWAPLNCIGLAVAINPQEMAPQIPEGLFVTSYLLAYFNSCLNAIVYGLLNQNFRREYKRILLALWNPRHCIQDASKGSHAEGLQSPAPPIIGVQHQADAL
Description: as §1, §2, §3, §4, §5, §6, §7

[1] = CNS penetration: CSF to plasma unbound concentration ratio in rat; format: in vivo; settings: CSF and plasma (unbound), iv; for Kp uu at 0.25 h: 15 minutes after intravenous administration, CCSF/Cplasma,u, read-out: Kp,uu,CSF,iv15min
Description: Test Example 4 Test for Evaluating CNS Penetration
(1) Measurement of Unbound Fraction (fp) in Rat Plasma
A test compound (100 μg/mL, 50% acetonitrile solution) at 1% (v/v) with respect to the amount of the plasma was added to rat plasma, and dispensed to a sample for a supernatant and a sample for the plasma. The sample for a supernatant was ultracentrifuged at 436,000×g and 37° C. for 140 minutes, and the sample for the plasma was incubated at 37° C. for 140 minutes.
After 140 minutes, the sample for a supernatant after the ultracentrifugation and the sample for the plasma were taken, and mixed with the blank plasma or the blank supernatant, respectively. Acetonitrile including an internal standard material was added to each of the samples, and after the centrifugation at 2150×g and 4° C. for 10 minutes the supernatant was injected into LC-MS/MS.
The unbound fraction in the plasma was calculated by the following equation.
(wherein fp: an unbound fraction in the plasma and D: a dilution rate of the plasma. fu,app=peak area ratio of supernatant sample/peak area ratio of the plasma sample, and peak area ratio=peak area of test compound/peak area of internal standard material).
(2) The CSF to Plasma Unbound Concentration Ratio in Rat
A 50% acetonitrile solution and an acetonitrile including internal standard material was added to the collected plasma or CSF. After centrifugation at 4° C. and 2150×g for 10 minutes, the supernatant was injected into LC-MS/MS, and the total concentration of the test compound in the plasma (Cplasma,t) and the concentration of the test compound in CSF (CCSF) were obtained. The unbound concentration in the plasma (Cplasma,u) of the test compound and the CSF-to plasma unbound concentration ratio (Kp,uu,CSF) of the test compound was calculated by the following equation.
as §7

3T3 = test: In vitro 3T3 NRU phototoxicity test; format: cell-based
Description: Test Example 6 Drug Pharmacokinetic Test, Safety Pharmacology Test, and Toxicity Test
Using some Example compounds of the present invention, a drug Pharmacokinetic test, a safety pharmacology test, and a toxicity test were carried out.
(iii) For the toxicity test, for example, an in vitro phototoxicity test was carried out. The evaluation of the in vitro phototoxicity test was carried out in accordance with Guidance for industry photosafety testing, Center for Drug Evaluation and Research Food and Drug Administration, 2003, which is a guideline of FDA (U.S. Food and Drug Administration), and Note for guidance on photosafety testing (CPMP/SWP/398/01, 2002) which is a guideline of EMA (European Medicines Agency), and the method described in OECD guideline for testing of chemicals 432: In vitro 3T3 NRU phototoxicity test, 2004, which is a test method described in the report of OECD.

isolated urethra = test: Test confirming that urethra contractile action by ramelteon is through MT1 and/or MT2 receptor (Luzindole); design: species or system rat; settings: ramelteon 1 μM; solvent added instead of Luzindole; first contraction by ramelteon as 100%
Description: (2) Test for Confirming that Urethra Contractile Action is Action Through MT1 and/or MT2 Receptor
The urethra was isolated from an SD female rat having a body weight of 100 to 500 g. The isolated urethra was incised longitudinally to give a rectangular strip specimen having a width of about 3 mm, which was suspended in the muscle parallel to the circular to 10 mL of a tissue bath filled with a Krebs-Henseleit solution (pH 7.4). […] The resting tension was set to 0.5 g to record the isometric contraction. After the resting tension was stabilized, contraction was elicited by the addition of 10 μM phenylephrine. After washing and stabilizing, the test compound (ramelteon) at 1 μM was added to measure a contractile response. After washing and stabilizing, a solvent or Luzindole (purchased from Wako Pure Chemical Industries, Ltd.) (0.1 μM, 1 μM, or 10 μM) was added to the same specimen, and after 20 minutes, ramelteon at 1 μM was added again thereto to measure a contractile reaction. When the first contraction by ramelteon at 1 μM was taken as 100%, the second contractile rate by ramelteon was measured.

Sequence of human MT1 receptor (P48039 whole entry): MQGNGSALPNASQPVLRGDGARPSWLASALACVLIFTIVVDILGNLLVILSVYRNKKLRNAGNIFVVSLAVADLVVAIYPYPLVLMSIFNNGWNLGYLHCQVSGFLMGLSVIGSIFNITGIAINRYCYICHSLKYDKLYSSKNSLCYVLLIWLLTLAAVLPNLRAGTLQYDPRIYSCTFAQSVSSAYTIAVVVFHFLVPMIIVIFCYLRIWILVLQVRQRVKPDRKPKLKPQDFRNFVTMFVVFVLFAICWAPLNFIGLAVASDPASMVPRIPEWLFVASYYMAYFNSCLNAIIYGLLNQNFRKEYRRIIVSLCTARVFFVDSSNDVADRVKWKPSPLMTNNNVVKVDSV

Row | SMILES | Emax (human MT1 receptor) | EC50 (human MT1 receptor) | Emax (human MT2 receptor) | EC50 (human MT2 receptor) | Kp uu at 0.25 h [1] | phototoxicity action (3T3) | melting point | Second contractile rate by ramelteon (%) (isolated urethra) | Kp uu at 10 min ([1]; 10 minutes after the intravenous administration)
1 | CNC(=O)c1[nH]c2ccc(OC)cc2c1CCNC(=O)C(F)F [Ex 2, 3-{2-[(difluoroacetyl)amino]ethyl}-5-methoxy-N-methyl-1H-indole-2-carboxamide] | 102% | 11 nM | 109% | 28 nM | 0.11 | no phototoxicity action | 212 to 215 °C |  | 
2 | CNC(=O)c1[nH]c2cc(F)c(OC)cc2c1CCNC(C)=O [Ex 17] | 86% | 20 nM | 94% | 58 nM | 0.08 | no phototoxicity action |  |  | 
3 | CCC(=O)NCC[C@@H]1CCc2ccc3c(c21)CCO3 [Ramelteon, reference compound] | 100% | 0.28 nM | 100% | 1.1 nM |  |  |  | 98 ± 10% | > 1
